Assay results reported in ChEMBL document CHEMBL5046315, “CRCM5484: A BET-BDII Selective Compound with Differential Anti-leukemic Drug Modulation” (J Med Chem, 2022).
Calls of active or inactive are those of the source. The rule behind the calls is not given here.

Experiments:
[1] = system: U-937; test: Potentiation of VX680-induced antileukemic activity against human U-937 cells at 4.3 uM in presence of bone-marrow derived stromal cell-conditioned medium; format: functional, cell-based
[2] = system: U-937; test: Potentiation of MK2206-induced antileukemic activity against human U-937 cells at 4.3 uM in presence of bone-marrow derived stromal cell-conditioned medium; format: functional, cell-based
[3] = system: CCRF-CEM; test: Potentiation of venetoclax-induced antileukemic activity against human CCRF-CEM cells at 4.3 uM in presence of bone-marrow derived stromal cell-conditioned medium; format: functional, cell-based
[4] = system: CCRF-CEM; test: Potentiation of bleomycine-induced antileukemic activity against human CCRF-CEM cells at 4.3 uM in presence of bone-marrow derived stromal cell-conditioned medium; format: functional, cell-based
[5] = system: MOLM-14; test: Potentiation of SGI-1776-induced antileukemic activity against human MOLM-14 cells at 4.3 uM in presence of bone-marrow derived stromal cell-conditioned medium; format: functional, cell-based
[6] = system: CCRF-CEM; test: Potentiation of navitoclax-induced antileukemic activity against human CCRF-CEM cells at 4.3 uM in presence of bone-marrow derived stromal cell-conditioned medium; format: functional, cell-based
[7] = system: CCRF-CEM; test: Potentiation of EPZ5676-induced antileukemic activity against human CCRF-CEM cells at 4.3 uM in presence of bone-marrow derived stromal cell-conditioned medium; format: functional, cell-based
[8] = system: MOLM-14; test: Potentiation of clofarabine-induced antileukemic activity against human MOLM-14 cells at 4.3 uM in presence of bone-marrow derived stromal cell-conditioned medium; format: functional, cell-based
[9] = system: U-937; test: Potentiation of entinostat-induced antileukemic activity against human U-937 cells at 4.3 uM in presence of bone-marrow derived stromal cell-conditioned medium; format: functional, cell-based
[10] = system: CCRF-CEM; test: Potentiation of AT9283-induced antileukemic activity against human CCRF-CEM cells at 4.3 uM in presence of bone-marrow derived stromal cell-conditioned medium; format: functional, cell-based
[11] = system: MOLM-14; test: Potentiation of -nutlin 3-induced antileukemic activity against human MOLM-14 cells at 4.3 uM in presence of bone-marrow derived stromal cell-conditioned medium; format: functional, cell-based
[12] = system: CCRF-CEM; test: Potentiation of olaparid-induced antileukemic activity against human CCRF-CEM cells at 4.3 uM in presence of bone-marrow derived stromal cell-conditioned medium; format: functional, cell-based
[13] = system: MOLM-14; test: Potentiation of cyclopamine-induced antileukemic activity against human MOLM-14 cells at 4.3 uM in presence of bone-marrow derived stromal cell-conditioned medium; format: functional, cell-based
[14] = system: CCRF-CEM; test: Potentiation of docetaxel-induced antileukemic activity against human CCRF-CEM cells at 4.3 uM in presence of bone-marrow derived stromal cell-conditioned medium; format: functional, cell-based
[15] = system: CCRF-CEM; test: Potentiation of cladribine-induced antileukemic activity against human CCRF-CEM cells at 4.3 uM in presence of bone-marrow derived stromal cell-conditioned medium; format: functional, cell-based
[16] = system: CCRF-CEM; test: Potentiation of daunorubicine-induced antileukemic activity against human CCRF-CEM cells at 4.3 uM in presence of bone-marrow derived stromal cell-conditioned medium; format: functional, cell-based
[17] = system: U-937; test: Potentiation of daunorubicine-induced antileukemic activity against human U-937 cells at 4.3 uM in presence of bone-marrow derived stromal cell-conditioned medium; format: functional, cell-based
[18] = system: MOLM-14; test: Potentiation of -mastinib -induced antileukemic activity against human MOLM-14 cells at 4.3 uM in presence of bone-marrow derived stromal cell-conditioned medium; format: functional, cell-based
[19] = system: U-937; test: Potentiation of AT9283-induced antileukemic activity against human U-937 cells at 4.3 uM in presence of bone-marrow derived stromal cell-conditioned medium; format: functional, cell-based
[20] = system: K562; test: Cytotoxicity against human K562 cells assessed as reduction in cell viability incubated for 72 hrs; format: functional, cell-based; details: K562, 72 h
[21] = system: U-937; test: Potentiation of everolimus-induced antileukemic activity against human U-937 cells at 4.3 uM in presence of bone-marrow derived stromal cell-conditioned medium; format: functional, cell-based
[22] = system: MOLM-14; test: Potentiation of ponatinib-induced antileukemic activity against human MOLM-14 cells at 4.3 uM in presence of bone-marrow derived stromal cell-conditioned medium; format: functional, cell-based
[23] = system: CCRF-CEM; test: Potentiation of palbociclib-induced antileukemic activity against human CCRF-CEM cells at 4.3 uM in presence of bone-marrow derived stromal cell-conditioned medium; format: functional, cell-based
[24] = system: MOLM-14; test: Potentiation of SGI-110-induced antileukemic activity against human MOLM-14 cells at 4.3 uM in presence of bone-marrow derived stromal cell-conditioned medium; format: functional, cell-based
[25] = system: U-937; test: Potentiation of ruxolitinib-induced antileukemic activity against human U-937 cells at 4.3 uM in presence of bone-marrow derived stromal cell-conditioned medium; format: functional, cell-based
[26] = system: MOLM-14; test: Potentiation of rigosertib-induced antileukemic activity against human MOLM-14 cells at 4.3 uM in presence of bone-marrow derived stromal cell-conditioned medium; format: functional, cell-based
[27] = system: MOLM-14; test: Potentiation of sorafenib-induced antileukemic activity against human MOLM-14 cells at 4.3 uM in presence of bone-marrow derived stromal cell-conditioned medium; format: functional, cell-based
[28] = system: U-937; test: Potentiation of vorinostat-induced antileukemic activity against human U-937 cells at 4.3 uM in presence of bone-marrow derived stromal cell-conditioned medium; format: functional, cell-based
[29] = system: MOLM-14; test: Potentiation of metformin -induced antileukemic activity against human MOLM-14 cells at 4.3 uM in presence of bone-marrow derived stromal cell-conditioned medium; format: functional, cell-based
[30] = system: MOLM-14; test: Potentiation of VX680-induced antileukemic activity against human MOLM-14 cells at 4.3 uM in presence of bone-marrow derived stromal cell-conditioned medium; format: functional, cell-based
[31] = system: MOLM-14; test: Potentiation of idasanutlin-induced antileukemic activity against human MOLM-14 cells at 4.3 uM in presence of bone-marrow derived stromal cell-conditioned medium; format: functional, cell-based
[32] = system: CCRF-CEM; test: Potentiation of nelarabine-induced antileukemic activity against human CCRF-CEM cells at 4.3 uM in presence of bone-marrow derived stromal cell-conditioned medium; format: functional, cell-based
[33] = target: Bromodomain-containing protein 4 (Homo sapiens, UniProt O60885); test: Inhibition of BRD4-BD2 (unknown origin) incubated for 6 hrs by HTRF method
[34] = system: MOLM-14; test: Potentiation of niotinib-induced antileukemic activity against human MOLM-14 cells at 4.3 uM in presence of bone-marrow derived stromal cell-conditioned medium; format: functional, cell-based
[35] = system: U-937; test: Potentiation of seliciclib-induced antileukemic activity against human U-937 cells at 4.3 uM in presence of bone-marrow derived stromal cell-conditioned medium; format: functional, cell-based
[36] = system: U-937; test: Potentiation of idarubicin-induced antileukemic activity against human U-937 cells at 4.3 uM in presence of bone-marrow derived stromal cell-conditioned medium; format: functional, cell-based
[37] = system: CCRF-CEM; test: Potentiation of -nutlin 3-induced antileukemic activity against human CCRF-CEM cells at 4.3 uM in presence of bone-marrow derived stromal cell-conditioned medium; format: functional, cell-based
[38] = system: MOLM-14; test: Potentiation of selinexor-induced antileukemic activity against human MOLM-14 cells at 4.3 uM in presence of bone-marrow derived stromal cell-conditioned medium; format: functional, cell-based
[39] = system: U-937; test: Potentiation of hydroxychloroquine-induced antileukemic activity against human U-937 cells at 4.3 uM in presence of bone-marrow derived stromal cell-conditioned medium; format: functional, cell-based
[40] = system: U-937; test: Potentiation of midostaurin-induced antileukemic activity against human U-937 cells at 4.3 uM in presence of bone-marrow derived stromal cell-conditioned medium; format: functional, cell-based
[41] = system: CCRF-CEM; test: Potentiation of GSK126-induced antileukemic activity against human CCRF-CEM cells at 4.3 uM in presence of bone-marrow derived stromal cell-conditioned medium; format: functional, cell-based

In the case of `CC(=O)N1CCc2c(sc3nc(SCC(=O)Nc4cccnc4C)n(Cc4ccco4)c(=O)c23)C1`, the Activity [1] is reported as “inactive”, the Activity [2] is reported as “inactive” and the Activity [3] is reported as “inactive”. The Activity [4] was “inactive”, the Activity [5] was “inactive” and the Activity [6] was “inactive”. For the same molecule, the Activity [7] was “inactive”, the Activity [8] was “inactive” and the Activity [9] was “inactive”. For the same molecule, the Activity [10] was “inactive”, the Activity [11] was “inactive” and the Activity [12] was “inactive”. The Activity [13] was “inactive”, the Activity [14] was “inactive” and the Activity [15] was “inactive”. The Activity [16] was “inactive”, the Activity [17] was “inactive” and the Activity [18] was “inactive”. The Activity [19] was “inactive”, the EC50 [20] was > 5000 nM and the Activity [21] was “inactive”. For the same molecule, the Activity [22] was “inactive”, the Activity [23] was “inactive” and the Activity [24] was “inactive”. The Activity [25] was “inactive”, the Activity [26] was “inactive” and the Activity [27] was “inactive”. The Activity [28] was “inactive”, the Activity [29] was “inactive” and the Activity [30] was “inactive”. The Activity [31] was “inactive”, the Activity [32] was “inactive” and the IC50 [33] was 130 nM. The Activity [34] was “inactive”, the Activity [35] was “inactive” and the Activity [36] was “inactive”. For the same molecule, the Activity [37] was “inactive”, the Activity [38] was “inactive” and the Activity [39] was “inactive”. The Activity [40] was “inactive” and the Activity [41] was “inactive”.
